Measured values: patent US20220033734A1, “FABRIC CONDITIONER COMPOSITIONS” (Conopco, Inc., d/b/a UNILEVER, priority 2018, published 2022)

Test system: Gram-negative non-fermenting bacteria: B. cepacia, P. aeruginosa, Strenotrophomonas sp
Experiment: Modified challenge test in fabric conditioner, Total Viable Count pour plate: Gram-negative non-fermenting bacteria
Format: cell-based
Conditions: overall statement on the challenge tests of Tables 3 and 4
Experimental: Water was heated to ˜45° C., the Cetearyl alcohol was added followed by the minors. A premix of melted quaternary ammonium active was then added and mixed. The formulation was then cooled to ˜35° C. and any remaining minors added.
Itaconic acid, lactic acid and citric acid were purchased from Sigma-Aldrich. Samples of unpreserved fabric conditioner were dosed with itaconic acid, citric acid or lactic acid separately, according to Tables 3 and 4. Each dosed product was adjusted to pH 5 using 50% sodium hydroxide (Sigma-Aldrich). An unpreserved sample was kept as a control.
A modified challenge test method was performed on samples as defined in […]. The microbial compositions comprising the bacteria listed in Tables 2 and 3 were produced with an inoculum level of 5×10^7 CFU/G in sodium chloride.
The microbial compositions were added to each fabric conditioner formulation at a ratio of 1:10 (by weight) microbial composition to fabric conditioner formulation. […]
Both the inoculum level and the level of microorganism within each sample was quantified using a Total Viable Count (TVC) pour plate method after contact times as indicated in data tables. […] Visible colonies were counted with the aid of a Quebec Colony Counter and recorded for analysis against the challenge test criteria.

C=C(CC(=O)O)C(=O)O [itaconic acid]
Preservation performance compared with other systems: out performed citric acid, lactic acid and unpreserved systems
